Values of other authors in patent US8496960B2 (Purdue Pharma L.P., priority 2001, dated 2013).

Assays:
[1] = following oral administration

## COc1cc2nc(N3CCN(C(=O)C4CCCO4)CC3)nc(N)c2cc1OC (stereo not drawn) [terazosin]
[1]
  time to antihypertensive effects: ≤ 15 min
Following oral administration
  first-pass effect: minimal
oral, with food
  effect of food on bioavailability: no significant effect
